{"source": "patent US20260274836A1", "about": "“NOVEL HEPATOSELECTIVE POLYADENYLATING POLYMERASES INHIBITORS AND THEIR METHOD OF USE” (Baruch S. Blumberg Institute, priority 2022, published 2026)", "key": {"[1]": {"test_system": "18f-NLuc reporter virus (HM175/18f HAV)", "assay": "Antiviral activity against human hepatitis A virus, 18f-NLuc reporter virus in Huh-7 cells", "type": "cell-based, Human Hepatitis A Virus (Hepatovirus A)", "conditions": "Hepatovirus A, Huh-7, 48 h, Huh-7 cells, 18f-NLuc virus, 48 hrs", "protocol": "Assay for Antiviral Activity Against Human Hepatitis A Virus (Hepatovirus A).\n(§1) Assays for the anti-HAV activity of the hepatoselective DHQ compounds were carried out in Huh-7 human hepatoma cells using the 18f-NLuc reporter virus, which expresses nanoluciferase (NLuc) from sequence inserted into the polyprotein coding region of the HM175/18f HAV genome between the VP1pX and 2B coding sequences (Yamane et al., 2019). The method was modified minimally from that described by Misumi et al. for iminosugar compounds (Misumi et al., 2021). Cells (approximately […]) were plated in wells of a 96-well plate with Dulbecco's modified Eagle medium (DMEM) and 10% fetal bovine serum. The cells were inoculated 24 hrs later with 18f-NLuc virus (approximately 10^6-10^7 genome equivalents) in medium containing increasing concentrations of the compounds of interest. The cells were re-incubated for 48 hrs at 37° C. in a 5% CO2 environment, then lysed in 1× passive lysis buffer (Promega) for 15 min at room temperature. Cell lysates were transferred to an opaque white 96-well plate (Corning, 3912) and NLuc assay carried out using the NLuc GLOW Assay kit (Nanolight Technology). Luminescence was measured using a Biotek Synergy II multi-mode plate reader (BioTek Instruments). The percent inhibition of replication was calculated by determining the reduction in NLuc activity from that expressed by infected cells incubated in parallel in the absence of compound, and 50% inhibitory endpoints estimated by fitting the data to a four parameter variable slope logistic curve using Prism 9 for Mac OS software (GraphPad). Cell toxicity of the compounds was assessed using the WST-1 Cell Proliferation Reagent (Sigma-Aldrich) at the end of the treatment period in parallel cultures of uninfected cells, with WST-1 reagent added to cultures for 1 hr prior to harvest and O.D. reading.\nas §1, with “Additional exemplary compounds of the present invention are evaluated for anti-HAV activity in accordance with certain assays described hereinabove. As discussed above, assays” for “Assays”, “10^6-107” for “10^6-10^7”"}, "[2]": {"assay": "Pharmacokinetics after oral gavage (PO) administration, plasma", "type": "in vivo, CD1 mice", "design": "AUClast/D: unit not given here", "conditions": "8 mg/kg oral; for Concentration (ng/mL), plasma: individual animals", "protocol": "Protocol for pharmacokinetic and tissue distribution studies. The pharmacokinetics of the compounds was studied in CD1 mice after intravenous (IV) and oral gavage (PO) administration. Mouse PK studies was conducted at 3 mg/kg (IV) and 8 mg/kg (PO). Plasma samples obtained from dosed animals, at ten time points, including 5, 15 and 30 minutes and 1, 1.5, 2, 4, 6, 8 and 24 hr post-dose for processing to plasma, were prepared for analysis by means of a single step protein precipitation technique, by adding 200 μL of acetonitrile containing an IS mixture (labetalol, imipramine and diclofenac) to 50 μL aliquots of individual subject samples. Samples were mixed by vortex for homogeneity and then subjected to centrifugation at 4000 rpm for 10 min. The supernatant (200 μL) was collected and injected into the LC-MS/MS for analysis. Pharmacokinetic parameters will be calculated using established non-compartmental methods. The liver distribution of the compounds was studied in the PO group and liver tissues were collected at each time point after PO administration. Accurately weighed whole liver tissues were collected in a 50 mL tube, and 3 volumes per weight of water will be added. Tissue samples were homogenized and 50 μL of the homogenates will be processed along with plasma samples as described above."}, "in vitro": {"assay": "in vitro", "type": "cell-based", "conditions": "human", "protocol": "Assays for the anti-HAV activity of the hepatoselective DHQ compounds were carried out in Huh-7 human hepatoma cells using the 18f-NLuc reporter virus, which expresses nanoluciferase (NLuc) from sequence inserted into the polyprotein coding region of the HM175/18f HAV genome between the VP1pX and 2B coding sequences (Yamane et al., 2019). The method was modified minimally from that described by Misumi et al. for iminosugar compounds (Misumi et al., 2021). Cells (approximately […]) were plated in wells of a 96-well plate with Dulbecco's modified Eagle medium (DMEM) and 10% fetal bovine serum. The cells were inoculated 24 hrs later with 18f-NLuc virus (approximately 10^6-10^7 genome equivalents) in medium containing increasing concentrations of the compounds of interest. […] Luminescence was measured using a Biotek Synergy II multi-mode plate reader (BioTek Instruments). […] Cell toxicity of the compounds was assessed using the WST-1 Cell Proliferation Reagent (Sigma-Aldrich) at the end of the treatment period in parallel cultures of uninfected cells, with WST-1 reagent added to cultures for 1 hr prior to harvest and O.D. reading.\nAdditional exemplary compounds of the present invention are evaluated for anti-HAV activity in accordance with certain assays described hereinabove. […] Luminescence was measured using a Biotek Synergy II multi-mode plate reader (BioTek Instruments). […]"}}}
{"smiles": "COc1cc2c(cc1OCCCCCCC(=O)O)C[C@@H](C(C)C)n1cc(C(=O)O)c(=O)cc1-2", "note": "[Example 6, (S)-9-((6-carboxyhexyl)oxy)-6-isopropyl-10-methoxy-2-oxo-6,7-dihydro-2H-pyrido[2,1-a]isoquinoline-3-carboxylic acid]", "values": [{"measurement": "EC50", "setting": "[1]", "result": 278, "unit": "nM"}, {"measurement": "AUClast/D", "setting": "[2]; mean", "result": 4.33}, {"measurement": "F", "setting": "[2]; mean", "result": 5.09, "unit": "%"}, {"measurement": "Concentration (ng/mL), plasma", "setting": "[2]; 8 h", "result": "BLOQ"}, {"measurement": "Concentration (ng/mL), plasma", "setting": "[2]; 24 h", "result": "BLOQ"}, {"measurement": "CC50 at 48 h", "setting": "in vitro", "result": "> 10000", "unit": "nM"}]}
